Data from patent publication US8188077B2, “Apoptosis-inducing agents for the treatment of cancer and immune and autoimmune diseases” (Abbott Laboratories, priority 2010, dated 2012).

Target: T1, Bcl-2 protein (Homo sapiens, UniProt P10415, DELINS35-91DVEENRTEAPEGTESE, form not given)
T1 construct: fused on or other part: Bcl-xL (Q07817) residues 29-44 stand in place of Bcl-2's own unstructured loop 35-91; The C-terminal membrane anchor (208-239) is absent
Experiment: Bcl-2 fluorescence polarization assay (FPA) binding
Conditions: 10 nM Bcl-2 protein, 1 nM fluorescein-labeled BAX peptide, room temperature, read-out: Bcl-2 FPA 11pt Ki
Summary of the method: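 Competitive fluorescence polarization with 10 nM Bcl-2 protein and 1 nM fluorescein-labeled BAX peptide in 20 mM phosphate pH 7.4, 1 mM EDTA, 0.05% PF-68. Compound dilutions in DMSO spanned […] to 10 pM; mix shaken 2 min, polarization read at room temperature (ex 485/em 530 nm); Ki values calculated.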

T1 sequence (P10415 with tags, fused parts or gaps with the stated changes): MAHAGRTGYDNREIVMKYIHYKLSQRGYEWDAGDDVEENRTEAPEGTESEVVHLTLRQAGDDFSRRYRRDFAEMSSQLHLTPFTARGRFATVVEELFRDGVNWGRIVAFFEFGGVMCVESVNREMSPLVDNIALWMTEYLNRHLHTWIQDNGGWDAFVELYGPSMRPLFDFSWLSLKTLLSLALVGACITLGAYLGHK

| Ki [µM] | Compound |
| --- | --- |
| 4.04 | CC1(C)OB(c2ccccc2CN2CCN(c3ccc(C(=O)NS(=O)(=O)c4ccc(NCC5CCOCC5)c([N+](=O)[O-])c4)cc3)CC2)OC1(C)C [Example 67, N-({3-nitro-4-[(tetrahydro-2H-pyran-4-ylmethyl)amino]phenyl}sulfonyl)-4-{4-[2-(4,4,5,5-tetramethyl-1,3,2-dioxaborolan-2-yl)benzyl]piperazin-1-yl}benzamide] |
| 0.0926 | COc1cccc(OC)c1C(=O)c1sccc1-c1ccccc1C=C1CCN(c2ccc(C(=O)NS(=O)(=O)c3ccc(NCC4CCOCC4)c([N+](=O)[O-])c3)cc2)CC1 [Example 68, 4-(4-{2-[2-(2,6-dimethoxybenzoyl)-3-thienyl]benzylidene}piperidin-1-yl)-N-({3-nitro-4-[(tetrahydro-2H-pyran-4-ylmethyl)amino]phenyl}sulfonyl)benzamide] |
| 0.789 | O=C(NS(=O)(=O)c1ccc(NCC2CCOCC2)c([N+](=O)[O-])c1)c1ccc(N2CCC(=Cc3ccccc3-c3cn(C45CC6CC(CC(C6)C4)C5)nc3C(=O)N(c3ccccc3)c3ccccc3)CC2)cc1 [Example 69, 1-[adamantan-1-yl]-4-{2-[(1-{4-[({3-nitro-4-[(tetrahydro-2H-pyran-4-ylmethyl)amino]phenyl}sulfonyl)carbamoyl]phenyl}piperidin-4-ylidene)methyl]phenyl}-N,N-diphenyl-1H-pyrazole-3-carboxamide] |
| 0.0354 | O=C(NS(=O)(=O)c1ccc(NCC2CCOCC2)c([N+](=O)[O-])c1)c1ccc(N2CCN(Cc3ccccc3N(C(=O)CCc3ccccc3)C3CC4CC3C3CCCC43)CC2)cc1 (centres unmarked) [Example 70, N-({3-nitro-4-[(tetrahydro-2H-pyran-4-ylmethyl)amino]phenyl}sulfonyl)-4-(4-{2-[octahydro-1H-4,7-methanoinden-5-yl(3-phenylpropanoyl)amino]benzyl}piperazin-1-yl)benzamide] |
| 0.0932 | C[C@@H]1[C@@H](Nc2cccc(C=C3CCN(c4ccc(C(=O)NS(=O)(=O)c5ccc(NCC6CCOCC6)c([N+](=O)[O-])c5)cc4)CC3)c2)C[C@H]2C[C@@H]1C2(C)C [Example 73, N-({3-nitro-4-[(tetrahydro-2H-pyran-4-ylmethyl)amino]phenyl}sulfonyl)-4-[4-(3-{[(1S,2S,3S,5R)-2,6,6-trimethylbicyclo[3.1.1]hept-3-yl]amino}benzylidene)piperidin-1-yl]benzamide] |
| 0.251 | O=C(NS(=O)(=O)c1ccc(NCC2CCOCC2)c([N+](=O)[O-])c1)c1ccc(N2CCC(=Cc3ccccc3-c3ccc(-c4nc(-c5ccccc5)cs4)s3)CC2)cc1 [Example 75, N-({3-nitro-4-[(tetrahydro-2H-pyran-4-ylmethyl)amino]phenyl}sulfonyl)-4-(4-{2-[5-(4-phenyl-1,3-thiazol-2-yl)-2-thienyl]benzylidene}piperidin-1-yl)benzamide] |
| 2.18 | O=C(NS(=O)(=O)c1ccc(NC2CCOCC2)c([N+](=O)[O-])c1)c1ccc(NCC23CC4CC(CC(C4)C2)C3)cc1 [Example 82, 4-{[adamantan-1-ylmethyl]amino}-N-{[3-nitro-4-(tetrahydro-2H-pyran-4-ylamino)phenyl]sulfonyl}benzamide] |
| > 6.25 | O=C(NS(=O)(=O)c1ccc(NC2CCOCC2)c([N+](=O)[O-])c1)c1ccc(N2CCC(NC(=O)C34CC5CC(CC(C5)C3)C4)CC2)cc1 [Example 83, N-{1-[4-({[3-nitro-4-(tetrahydro-2H-pyran-4-ylamino)phenyl]sulfonyl}carbamoyl)phenyl]piperidin-4-yl}adamantane-1-carboxamide] |
| 2.38 | O=C(NS(=O)(=O)c1ccc(NC2CCOCC2)c([N+](=O)[O-])c1)c1ccc(NC2C3CC4CC(C3)CC2C4)cc1 (centres unmarked) [Example 84, 4-[adamantan-2-ylamino]-N-{[3-nitro-4-(tetrahydro-2H-pyran-4-ylamino)phenyl]sulfonyl}benzamide] |

More lines, now with the values behind:

| Compound | Ki [µM] |
| --- | --- |
| O=C(NS(=O)(=O)c1ccc(NCC2CCOCC2)c([N+](=O)[O-])c1)c1ccc(N2CCC(=Cc3ccccc3-c3ccc(CN4C5CCCC4CC5)s3)CC2)cc1 [Example 71, 4-[4-(2-{5-[8-azabicyclo[3.2.1]oct-8-ylmethyl]-2-thienyl}benzylidene)piperidin-1-yl]-N-({3-nitro-4-[(tetrahydro-2H-pyran-4-ylmethyl)amino]phenyl}sulfonyl)benzamide] | < 0.02 |
| C[C@@H]1[C@@H](Nc2ccc(C=C3CCN(c4ccc(C(=O)NS(=O)(=O)c5ccc(NCC6CCOCC6)c([N+](=O)[O-])c5)cc4)CC3)cc2)C[C@H]2C[C@@H]1C2(C)C [Example 72, N-({3-nitro-4-[(tetrahydro-2H-pyran-4-ylmethyl)amino]phenyl}sulfonyl)-4-[4-(4-{[(1S,2S,3S,5R)-2,6,6-trimethylbicyclo[3.1.1]hept-3-yl]amino}benzylidene)piperidin-1-yl]benzamide] | 0.287 |
| O=C(NS(=O)(=O)c1ccc(NCC2CCOCC2)c([N+](=O)[O-])c1)c1ccc(N2CCC(=Cc3ccccc3-c3ccc(-c4nc(C56CC7CC(CC(C7)C5)C6)cs4)s3)CC2)cc1 [Example 74, 4-[4-(2-{5-[4-(adamantan-1-yl)-1,3-thiazol-2-yl]-2-thienyl}benzylidene)piperidin-1-yl]-N-({3-nitro-4-[(tetrahydro-2H-pyran-4-ylmethyl)amino]phenyl}sulfonyl)benzamide] | 0.102 |
| CC1(C)[C@@H]2CC[C@@]1(C)CN(c1ccc(C(=O)NS(=O)(=O)c3ccc(NC4CCOCC4)c([N+](=O)[O-])c3)cc1)C2 [Example 79, N-{[3-nitro-4-(tetrahydro-2H-pyran-4-ylamino)phenyl]sulfonyl}-4-[(1R,5S)-1,8,8-trimethyl-3-azabicyclo[3.2.1]oct-3-yl]benzamide] | 1.42 |
| COc1ccc(-c2ccc3cc(C(=O)NS(=O)(=O)c4ccc(NCC5CCCCC5)c([N+](=O)[O-])c4)ccc3c2)cc1C12CC3CC(CC(C3)C1)C2 [Example 80, 6-{3-[adamantan-1-yl]-4-methoxyphenyl}-N-({4-[(cyclohexylmethyl)amino]-3-nitrophenyl}sulfonyl)-2-naphthamide] | 1.3 |
| O=C(NS(=O)(=O)c1ccc(NC2CCOCC2)c([N+](=O)[O-])c1)c1ccc(N2CCN(C(=O)CC34CC5CC(CC(C5)C3)C4)CC2)cc1 [Example 81, 4-{4-[adamantan-1-ylacetyl]piperazin-1-yl}-N-{[3-nitro-4-(tetrahydro-2H-pyran-4-ylamino)phenyl]sulfonyl}benzamide] | 4.73 |
| C[C@@H]1[C@H]2C[C@@H](C[C@H]1Oc1ccc(C(=O)NS(=O)(=O)c3ccc(NC4CCOCC4)c([N+](=O)[O-])c3)cc1)C2(C)C [Example 85, N-{[3-nitro-4-(tetrahydro-2H-pyran-4-ylamino)phenyl]sulfonyl}-4-{[(1R,2R,3R,5S)-2,6,6-trimethylbicyclo[3.1.1]hept-3-yl]oxy}benzamide] | 2.88 |
| N-(adamantan-2-yl)-6-methyl-8-{2-[(4-{4-[({3-nitro-4-[(tetrahydro-2H-pyran-4-ylmethyl)amino]phenyl}sulfonyl)carbamoyl]phenyl}piperazin-1-yl)methyl]phenyl}imidazo[1,2-a]pyridine-2-carboxamide [Example 26] | 1.17 |
